Source: patent publication US8163737B2 (Vertex Pharmaceuticals Incorporated, priority 2006, dated 2012)

What follows are compounds tested against endogenous CGRP receptor (Homo sapiens, UniProt O60894+Q16602) (assay: CGRP functional antagonism using SK-N-MC-BLA (4C10), β-lactamase transcriptional reporter assay). Conditions: SK-N-MC (4C10) cells, inhibition of β-lactamase expression in the presence of 200 pM CGRP.
Type: cell-based
From the text: Measuring CGRP Functional Antagonism Using SK-N-MC-BLA (4C10):
CGRP functional antagonism was characterized in a cell based transcriptional assay using a recombinant SK-N-MC line. To introduce the transcriptional reporter system, SK-N-MC cell line was transduced with a retroviral vector containing β-lactamase gene downstream of cAMP responsive promoter. The expression of β-lactamase is triggered by cAMP increase that is a downstream event of activation of endogenous CGRP receptor. Single clones were separated using Fluorescent Activated Cell Sorting (FACS) based on CGRP induced β-lactamase activity. β-lactamase activity was measured using a fluorescence energy transfer (FRET) dye, CCF4. […] To evaluate functional antagonist activity of compounds in SK-N-MC (4C10) line, compounds were evaluated for their inhibition of β-lactamase expression in the presence of CGRP.
SK-N-MC (4C10) was cultured in Minimal Essential Media (MEM) (Invitrogen) supplemented with 1 mM non-essential amino acids solution (Invitrogen), 100 units/ml Penicillin-Streptomycin (Invitrogen), 1 mM sodium pyruvate (Invitrogen) and 10% fetal bovine serum. For the β-lactamase assay, low serum, 1% FBS in MEM was used. 30,000 cells were plated into each wells of poly-D-lysine coated 384-well plate (Becton Dickinson) a day prior to the assay. SK-N-MC (4C10) was preincubated with compounds for 30 min before the addition of 200 pM CGRP. The assay was incubated for 3 hours at 37° C. to allow β-lactamase expression. CCF4 dye was added and incubated for 2 hours at room temperature. […] Curve fitting and IC50 calculation were carried about using MOD3.

Chain of endogenous CGRP receptor (Q16602 23-461): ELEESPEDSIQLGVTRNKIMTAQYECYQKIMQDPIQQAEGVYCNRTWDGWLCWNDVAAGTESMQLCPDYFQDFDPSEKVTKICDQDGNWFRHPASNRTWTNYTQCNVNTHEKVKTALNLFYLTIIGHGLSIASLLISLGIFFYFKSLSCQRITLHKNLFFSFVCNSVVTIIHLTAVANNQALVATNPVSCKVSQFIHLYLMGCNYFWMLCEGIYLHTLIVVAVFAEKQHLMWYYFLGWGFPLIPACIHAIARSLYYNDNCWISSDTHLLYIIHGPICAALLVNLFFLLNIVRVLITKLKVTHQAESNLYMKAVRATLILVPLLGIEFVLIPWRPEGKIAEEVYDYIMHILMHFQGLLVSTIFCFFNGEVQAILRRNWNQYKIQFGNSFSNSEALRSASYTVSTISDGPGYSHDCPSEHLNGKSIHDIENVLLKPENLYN
Chain of endogenous CGRP receptor (O60894 27-148): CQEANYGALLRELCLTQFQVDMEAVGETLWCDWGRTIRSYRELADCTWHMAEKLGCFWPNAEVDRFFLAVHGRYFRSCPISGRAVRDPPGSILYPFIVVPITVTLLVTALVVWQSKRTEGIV

Structure (SMILES) | IC50 [nM]
CC(C)(C)CCN1C(=O)[C@H](CC(=O)N2CCC(N3CCc4ccccc4NC3=O)CC2)SC1c1cccc(F)c1N1CCNCC1 (stereo partly shown) [Compound 399] | > 5000
CC(C)CCN1C(=O)C(CC(=O)N2CCC(N3Cc4ccccc4NC3=O)CC2)SC12C=CC(C)(C)CC2 (stereo not shown) [Compound 241] | 1000 to 5000
CCCCCCCC1SC(CC(=O)N2CCC(N3Cc4ccccc4NC3=O)CC2)C(=O)N1CCC(C)C (stereo not shown) [Compound 71] | > 5000
CC(C)(C)CCN1C(=O)[C@H](CC(=O)N2CCC(n3nnc4ccccc43)CC2)SC1c1cccc(F)c1N1CCN(C(C)(C)C)CC1 (stereo partly shown) [Compound 451] | 1000 to 5000
CC(C)CCN1C(=O)C(CC(=O)N2CCC(N3Cc4ccccc4NC3=O)CC2)SC1c1ccccc1OCc1ccccc1 (stereo not shown) [Compound 246] | < 1000
CCN1C(=O)C(CC(=O)N2CCC(N3Cc4ccccc4NC3=O)CC2)SC1c1ccccc1 (stereo not shown) [Compound 177] | 1000 to 5000
CC(C)CCN1C(=O)C(CC(=O)N2CCC(N3CCc4ccccc4NC3=O)CC2)SC1c1cc(C(F)(F)F)ccc1F (stereo not shown) [Compound 13] | < 1000
O=C(CC1SC(c2ccccc2)N(CC2CCCO2)C1=O)N1CCC(N2CCc3ccccc3NC2=O)CC1 (stereo not shown) [Compound 83] | < 1000
CN1CCN(c2ccccc2C2SC(CC(=O)N3CCC(CO)CC3)C(=O)N2CCC(C)(C)C)CC1 (stereo not shown) [Compound 85] | > 5000
CCOCCCN1C(=O)C(CC(=O)N2CCC(N3CCc4ccccc4NC3=O)CC2)SC1c1ccccc1 (stereo not shown) [Compound 4] | < 1000
CCN1C(=O)C(CC(=O)N2CCC(N3CCc4ccccc4NC3=O)CC2)SC1c1ccccc1 (stereo not shown) [Compound 284] | 1000 to 5000
Cc1c(F)cccc1C1SC(CC(=O)N2CCC(N3CCc4ccccc4NC3=O)CC2)C(=O)N1CCC(C)C (stereo not shown) [Compound 26] | < 1000
CN1CCN(c2ccccc2C2SC(CC(=O)N3CCC(N4CCc5ccccc5NC4=O)CC3)C(=O)N2CC(C)(C)C)CC1 (stereo not shown) [Compound 410] | < 1000
CC(C)N1CCN(c2ncccc2C2S[C@@H](CC(=O)N3CCC(n4c(=O)[nH]c5ncccc54)CC3)C(=O)N2CCC(C)(C)C)CC1 (stereo partly shown) [Compound 443] | < 1000
CC(C)CCN1C(=O)C(CC(=O)N2CCC(N3CCc4ccccc4NC3=O)CC2)SC12CCCCCC2 (stereo not shown) [Compound 91] | < 1000
CC(=O)N1CCC2(CCN(C(=O)CC3SC(c4ccccc4)N(CCC(C)C)C3=O)CC2)c2ccccc21 (stereo not shown) [Compound 157] | > 5000
CN(C)CCCN(C)c1ccccc1C1SC(CC(=O)N2CCC(N3CCc4ccccc4NC3=O)CC2)C(=O)N1CCC(C)(C)C (stereo not shown) [Compound 385] | 1000 to 5000
CC(C)CCN1C(=O)C(CC(=O)N2CCC(N3Cc4ccccc4NC3=O)CC2)SC1c1ccccc1N(C)C (stereo not shown) [Compound 121] | < 1000
CC(C)CCN1C(=O)C(CC(=O)N2CCC(N3CCc4ccccc4NC3=O)CC2)SC1[C@H](C)c1ccccc1 (stereo partly shown) [Compound 180] | 1000 to 5000
CN1CCN(c2ccccc2[C@H]2SC(CC(=O)N3CCCCC3)C(=O)N2CCC(C)(C)C)CC1 (stereo partly shown) [Compound 97] | > 5000
CC(C)(C)CCN1C(=O)[C@H](CC(=O)N2CCC(O)(c3ccc(F)cc3)CC2)SC1c1cccc(F)c1N1CCN(C(C)(C)C)CC1 (stereo partly shown) [Compound 454] | > 5000
Cc1cc(C2SC(CC(=O)N3CCC(N4Cc5ccccc5NC4=O)CC3)C(=O)N2CCC(C)(C)C)cc2cn[nH]c12 (stereo not shown) [Compound 179] | < 1000
O=C(CC1SC(c2ccccc2)N(Cc2cccnc2)C1=O)N1CCC(N2CCc3ccccc3NC2=O)CC1 (stereo not shown) [Compound 185] | < 1000
CC(=O)N1CC2(CCN(C(=O)CC3SC(c4ccccc4)N(CCC(C)C)C3=O)CC2)c2cc(C(C)C)ccc21 (stereo not shown) [Compound 27] | > 5000
O=C(CC1SC(c2ccccc2F)N(CC2CCCCC2)C1=O)N1CCC(N2Cc3ccccc3NC2=O)CC1 (stereo not shown) [Compound 126] | < 1000

Structure (SMILES) | IC50 [nM]
COC(=O)[C@H](CC(C)C)N1C(=O)C(CC(=O)N2CCC(N3Cc4ccccc4NC3=O)CC2)SC1c1ccccc1 (stereo partly shown) [Compound 205] | 1000 to 5000
CN1CCN(c2cc(F)ccc2C2SC(CC(=O)N3CCC(N4CCc5ccccc5NC4=O)CC3)C(=O)N2CCC(C)(C)C)CC1 (stereo not shown) [Compound 361] | 1000 to 5000
COc1ccc(C2SC(CC(=O)N3CCC(N4Cc5ccccc5NC4=O)CC3)C(=O)N2CCC(C)C)cc1 (stereo not shown) [Compound 272] | 1000 to 5000
CC(C)CCN1C(=O)C(CC(=O)N2CCC(N3Cc4ccccc4NC3=O)CC2)SC1c1cc(C(F)(F)F)ccc1F (stereo not shown) [Compound 136] | < 1000
CC(C)(C)CCN1C(=O)[C@H](CC(=O)N2CCC(O)(c3ccc(F)cc3)CC2)S[C@@H]1c1cccc(F)c1N1CCN(C(C)(C)C)CC1 [Compound 453] | < 1000
CN1CCN(c2c(Cl)cccc2C2SC(CC(=O)N3CCC(N4CCc5ccccc5NC4=O)CC3)C(=O)N2CCC(C)(C)C)CC1 (stereo not shown) [Compound 356] | < 1000
O=C(CC1SC(C2CCOCC2)N(c2ccccc2)C1=O)N1CCC(N2CCc3ccccc3NC2=O)CC1 (stereo not shown) [Compound 420] | > 5000
CN1CCN(c2ccccc2[C@H]2S[C@](C)(CC(=O)N3CCC(N4Cc5ccccc5NC4=O)CC3)C(=O)N2CCC(C)(C)C)CC1 [Compound 334] | < 1000
O=C(CC1SC(c2ccccc2)N(CCc2ccccc2)C1=O)N1CCC(N2CCc3ccccc3NC2=O)CC1 (stereo not shown) [Compound 231] | < 1000
CC(=O)Nc1ccc(C2SC(CC(=O)N3CCC(N4Cc5ccccc5NC4=O)CC3)C(=O)N2CCC(C)C)cc1 (stereo not shown) [Compound 213] | 1000 to 5000
CC(C)N1CCN(c2c(F)cccc2[C@@H]2S[C@@H](CC(=O)N3CCC(N4CCc5ccccc5NC4=O)CC3)C(=O)N2CCC(C)(C)C)CC1 [Compound 395] | > 5000
CN(C)[C@H]1CCN(c2ccccc2C2SC(CC(=O)N3CCC(n4c(=O)[nH]c5ncccc54)CC3)C(=O)N2CCC(C)(C)C)C1 (stereo partly shown) [Compound 404] | 1000 to 5000
CC(C)(C)CCN1C(=O)[C@H](CC(=O)N2CCC(N3CCc4ccccc4NC3=O)CC2)SC1c1cccc(F)c1N1CCC(N2CCCCC2)CC1 (stereo partly shown) [Compound 439] | < 1000
CC(C)CCN1C(=O)C(CC(=O)N2CCC(N3Cc4ccccc4NC3=O)CC2)SC1CCc1ccccc1 (stereo not shown) [Compound 6] | < 1000
CN(C)CCN(C)c1ccccc1C1SC(CC(=O)N2CCC(N3CCc4ccccc4NC3=O)CC2)C(=O)N1CCC(C)(C)C (stereo not shown) [Compound 383] | 1000 to 5000
CC(C)CCN1C(=O)C(CC(=O)N2CCC(N3Cc4ccccc4NC3=O)CC2)SC1C1CCCOC1 (stereo not shown) [Compound 209] | < 1000
CC(C)CCN1C(=O)C(CC(=O)N2CCC(N3C(=O)Cc4ccccc43)CC2)SC1c1ccccc1 (stereo not shown) [Compound 270] | > 5000
CC1=CCCC(C)C1C1SC(CC(=O)N2CCC(N3Cc4ccccc4NC3=O)CC2)C(=O)N1CCC(C)C (stereo not shown) [Compound 100] | < 1000
CC(=O)C1(c2ccccc2)CCN(C(=O)CC2SC(c3ccccc3)N(CCC(C)C)C2=O)CC1 (stereo not shown) [Compound 141] | > 5000
CC(C)CCN1C(=O)C(CC(=O)N2CCC(N3Cc4ccccc4NC3=O)CC2)SC12CCCCCC2 (stereo not shown) [Compound 32] | < 1000
COC(=O)[C@@H](CC1CCCCC1)N1C(=O)C(CC(=O)N2CCC(N3CCc4ccccc4NC3=O)CC2)SC1c1ccccc1 (stereo partly shown) [Compound 243] | 1000 to 5000
C=CCN1C(=O)C(CC(=O)N2CCC(N3CCc4ccccc4NC3=O)CC2)SC1c1ccccc1 (stereo not shown) [Compound 96] | 1000 to 5000
O=C(CC1SC(c2ccccc2)N(Cc2ccncc2)C1=O)N1CCC(N2Cc3ccccc3NC2=O)CC1 (stereo not shown) [Compound 46] | 1000 to 5000
CCC(CC)C1SC(CC(=O)N2CCC(N3Cc4ccccc4NC3=O)CC2)C(=O)N1CCC(C)C (stereo not shown) [Compound 151] | < 1000
